In patent US20110136666A1, “CHEMICAL COMPOUNDS” (SYNGENTA CROP PROTECTION, INC., priority 2008, published 2011):

Experiments:
Type in all cases: in vivo
[1] = system: Alopecurus myosuroides (ALOMY); experiment: Pre-emergence biological efficacy, glasshouse pot test; conditions: 312 h, after 13 days, 100=total damage, 0=no damage, read-out: Percentage damage caused to weed species ALOMY
Description: (§1) Seeds of Alopecurus myosuroides (ALOMY), Setaria faberi (SETFA), Echinochloa crus-galli (ECHCG), Solanum nigrum (SOLNI), Amaranthus retroflexus (AMARE) and Ipomea hederaceae (IPOHE) were sown in standard soil in pots. After cultivation for one day under controlled conditions in a glasshouse (at 24/16° C., day/night; 14 hours light; 65% humidity), the plants were sprayed with an aqueous spray solution derived from the formulation of the technical active ingredient in acetone/water (50:50) solution containing 0.5% Tween 20 (polyoxyethylene sorbitan monolaurate, CAS RN 9005-64-5) to give a final dose of 250 or 1000 g/ha of test compound.
(§2) The test plants were then grown under controlled conditions in the glasshouse (at 24/16° C., day/night; 14 hours light; 65% humidity) and watered twice daily. After 13 days the test was evaluated (100=total damage to plant; 0=no damage to plant).

[2] = system: Amaranthus retroflexus (AMARE); experiment: as above; conditions: 312 h, after 13 days, 100=total damage, 0=no damage, read-out: Percentage damage caused to weed species AMARE
Description: as §1, §2

[3] = system: Echinochloa crus-galli (ECHCG); experiment: as above; conditions: 312 h, after 13 days, 100=total damage, 0=no damage, read-out: Percentage damage caused to weed species ECHCG
Description: as §1, §2

[4] = system: Ipomea hederaceae (IPOHE); experiment: as above; conditions: Ipomoea hederacea, 312 h, after 13 days, 100=total damage, 0=no damage, read-out: Percentage damage caused to weed species IPOHE
Description: as §1, §2

[5] = system: Setaria faberi (SETFA); experiment: as above; conditions: 312 h, after 13 days, 100=total damage, 0=no damage, read-out: Percentage damage caused to weed species SETFA
Description: as §1, §2

[6] = system: Solanum nigrum (SOLNI); experiment: as above; conditions: 312 h, after 13 days, 100=total damage, 0=no damage, read-out: Percentage damage caused to weed species SOLNI
Description: as §1, §2

[7] = system: Alopecurus myosuroides (ALOMY); experiment: Post-emergence biological efficacy, glasshouse pot test; conditions: 312 h, after 13 days, 100=total damage, 0=no damage, read-out: Percentage damage caused to weed species ALOMY
Description: as §1, with “8 days” for “one day”
(§3) The test plants were then grown on under controlled conditions in a glasshouse (at 24/16° C., day/night; 14 hours light; 65% humidity) and watered twice daily. After 13 days the test was evaluated (100=total damage to plant; 0=no damage to plant).

[8] = system: Amaranthus retroflexus (AMARE); experiment: as above; conditions: 312 h, after 13 days, 100=total damage, 0=no damage, read-out: Percentage damage caused to weed species AMARE
Description: as §1, with “8 days” for “one day”
as §3

[9] = system: Echinochloa crus-galli (ECHCG); experiment: as above; conditions: 312 h, after 13 days, 100=total damage, 0=no damage, read-out: Percentage damage caused to weed species ECHCG
Description: as §1, with “8 days” for “one day”
as §3

[10] = system: Ipomea hederaceae (IPOHE); experiment: as above; conditions: Ipomoea hederacea, 312 h, after 13 days, 100=total damage, 0=no damage, read-out: Percentage damage caused to weed species IPONE
Description: as §1, with “8 days” for “one day”
as §3

[11] = system: Setaria faberi (SETFA); experiment: as above; conditions: 312 h, after 13 days, 100=total damage, 0=no damage, read-out: Percentage damage caused to weed species SETFA
Description: as §1, with “8 days” for “one day”
as §3

[12] = system: Solanum nigrum (SOLNI); experiment: as above; conditions: 312 h, after 13 days, 100=total damage, 0=no damage, read-out: Percentage damage caused to weed species SOLNI
Description: as §1, with “8 days” for “one day”
as §3

SMILES	pest or weed control at 250 g/ha [1] [%]	pest or weed control at 250 g/ha [2] [%]	pest or weed control at 250 g/ha [3] [%]	pest or weed control at 250 g/ha [4] [%]	pest or weed control at 250 g/ha [5] [%]	pest or weed control at 250 g/ha [6] [%]	pest or weed control at 250 g/ha [7] [%]	pest or weed control at 250 g/ha [8] [%]	pest or weed control at 250 g/ha [9] [%]	pest or weed control at 250 g/ha [10] [%]	pest or weed control at 250 g/ha [11] [%]	pest or weed control at 250 g/ha [12] [%]	pest or weed control at 1000 g/ha [1] [%]	pest or weed control at 1000 g/ha [2] [%]	pest or weed control at 1000 g/ha [3] [%]	pest or weed control at 1000 g/ha [4] [%]	pest or weed control at 1000 g/ha [5] [%]	pest or weed control at 1000 g/ha [6] [%]	pest or weed control at 1000 g/ha [7] [%]	pest or weed control at 1000 g/ha [8] [%]	further results
COC(=O)c1nc(-c2ccc(C(C)=O)s2)nc(N)c1Cl [Compound 2-9, 4-Amino-5-chloro-6-methoxycarbonyl-2-(5-methylcarbonyl-thiophen-2-yl)-pyrimidine]	0	0	0	0	0	0	0	0	0	0	0	0									
COC(=O)c1nc(-c2ccsc2)nc(N)c1Cl [Compound 2-16, 4-Amino-5-chloro-6-methoxycarbonyl-2-thiophen-3-ylpyrimidine]	10	90	0	0	0	30	20	0	0	40	0	0									
COC(=O)c1nc(-c2cscc2C)nc(N)c1Cl [Compound 2-17, 4-Amino-5-chloro-6-methoxycarbonyl-2-(4-methylthiophen-3-yl)-pyrimidine]	0	50	0	0	0	0	0	0	0	0	0	0									
COC(=O)c1nc(-c2ccsc2Cl)nc(N)c1Cl [Compound 2-18, 4-Amino-5-chloro-2-(2-chlorothiophen-3-yl)-6-methoxycarbonyl pyrimidine]	0	0	0	0	0	0	10	20	10	40	10	0									
COC(=O)c1nc(-c2cc(Cl)sc2Cl)nc(N)c1Cl [Compound 2-19, 4-Amino-5-chloro-2-(2,5-dichlorothiophen-3-yl)-6-methoxycarbonyl pyrimidine]													0	20	0	30	0	20	0	100	pest or weed control at 1000 g/ha [9]: 10%; pest or weed control at 1000 g/ha [10]: 70%; pest or weed control at 1000 g/ha [11]: 30%; pest or weed control at 1000 g/ha [12]: 70%
COC(=O)c1nc(-c2ccoc2)nc(N)c1Cl [Compound 2-34, 4-Amino-5-chloro-2-(furan-3-yl)-6-methoxycarbonyl pyrimidine]													0	0	0	0	0	0	10	30	pest or weed control at 1000 g/ha [9]: 0%; pest or weed control at 1000 g/ha [10]: 50%; pest or weed control at 1000 g/ha [11]: 0%; pest or weed control at 1000 g/ha [12]: 10%
